Like-named read-outs stand apart in the source and are kept apart here. Where a SMILES comes first, the peptide text is derived from it. [ ]: non-standard residue; d: D form. The star is where a group is joined. Dolaproine = CO[C@@H]([C@@H]1CCCN1)[C@@H](C)C(=O)O; Dil = CC[C@H](C)[C@H](NC)[C@@H](CC(=O)O)OC; X1 = C[C@@H](N*)[C@@H](O)c1ccccc1; NMeV = CN[C@H](C(=O)O)C(C)C
How the values were obtained:
[1] = oral bioavailability, radiolabel studies with 14C-RB; type: in vivo; conditions: 14C-RB in aqueous solution given orally to mice
Text: The bioavailability of various HX compounds such as disodium rose bengal has not been well characterized. Studies commissioned by one of the assignees concluded that bioavailability of disodium rose bengal is less than (<) 1% based on radiolabel studies where ^14C-RB in aqueous solution was given orally to mice. In the stomach, with a pH value<4, an HX compound is likely to be in the lactone form.

[2] = oral bioavailability, mass balance studies; type: in vivo; conditions: aqueous solution, estimated from mass balance studies
Experimental: Bioavailability of RB disodium administered in aqueous solution via the oral route appears to be limited based on mass balance studies conducted by the inventors, and can be estimated at 0.1-1 percent, corresponding to a daily systemic exposure of 0.2-2 mg/kg. Presuming this amount is distributed through the bloodstream, and that blood volume comprises approximately 10 percent of body weight, this equates to an estimated concentration of 2-20 μM RB in the blood.

[3] = system: SEM cells (human ALL cells labelled with GFP); experiment: survival of CB17 SCID mice with SEM leukemia xenograft, oral treatment; type: in vivo; conditions: for survival / therapeutic activity in words: oral gavage twice weekly for two weeks, FIG. 1
Experimental: FIG. 1 is a graph showing survival of CB17 SCID mice from Charles River Laboratories International, Inc., treated with orally-administered rose bengal disodium. Exponentially-growing SEM cells (2.5×10^6 human ALL cells labelled with GFP) were injected intravenously into each animal and the establishment of tumors was monitored. After 4 weeks to permit the growth of the tumor, mice were randomized to three groups. Group 1 (n=9 control animals) received 100 μL of PBS given orally twice a week for two weeks. Group 2 (n=8 treatment Cohort I animals) received 25 μL of rose bengal disodium present at 10% w/v in 0.9% NaCl aqueous solution that was diluted in PBS to a final volume of 100 μL and given orally twice a week for 2 weeks. Group 3 (n=8 treatment Cohort II animals) received 12.5 μL of the above 10% w/v in 0.9% NaCl aqueous solution that was diluted in PBS to a final volume of 100 μL and administered orally twice a week for 2 weeks. […] Data are presented as Kaplan-Meier estimates.
Female C17 SCID mice from Charles River
The SEM cell line was initially established from a 5 year old female with B acute lymphoblastic leukemia. It carries the MLL-AFFF1 gene fusion and heterozygous for CDKN2A and TP53.
2.5×10^6 exponentially growing SEM cells [labelled with green fluorescent protein (GFP)] were injected intravenously into each animal and the establishment of tumors was monitored. After 4 weeks to permit the growth of the tumors, mice were randomized to three groups.
These animals received 100 μL of PBS given orally twice a week for two weeks.
These animals received 25 μL of PV-10® (10% rose bengal disodium w/v in 0.9 percent in aqueous saline) diluted in PBS to a final volume of 100 μL and given orally by gavage twice a week for 2 weeks.
These animals received 12.5 μL of PV-10® (as discussed above) diluted in PBS to a final volume of 100 μL and given orally by gavage twice a week for 2 weeks.
Data are presented in FIG. 1 as Kaplan-Meier estimates.

[4] = solubility and behaviour of HX compound forms in aqueous media; type: physicochemical; conditions: solutions of disodium RB mixed in
Text: The dibasic salt forms of the HX compounds exist in solution having a pH greater than approximately 5, whereas at pH values<5 the HX compounds spontaneously convert to their lactone form. […] Thus, optimizing formulation to properly compensate for the pH value of the GI tract is perhaps the most important parameter affecting bioavailability. For example, in the stomach, where pH value<4, dissolved HX compound is rapidly converted to the insoluble lactone form.
For example, the highly acidic gastric environment (pH 1.5-2 in the fasted state; pH 3-6 in the fed state) rises rapidly to about pH 6 in the duodenum and increases along the small intestine to pH 7.4 at the terminal ileum. The pH value in the cecum drops just below pH 6 and again rises in the colon reaching pH 6.7 at the rectum [Hua, Front Pharmacol 11:Article 524 (April 2020)].

[5] = system: pediatric solid tumors (neuroblastoma and neuroepithelioma); conditions: in vitro contact for 96 hours; cited from earlier work
[6] = fed ad libitum continuously for 2 years, C57BL6N mice; cited from earlier work
[7] = cited from earlier work
[8] = clearance from circulation; cited from earlier work
[9] = tolerated dose in clinical studies of PV-10; type: in vivo, human
Experimental: The classic intravenous (IV) diagnostic assay for liver function using RB was conducted giving 100 mg RB as a single IV dose. In clinical studies of PV-10® aqueous RB disodium solution, RB has been tolerated at 1500 mg delivered IV. The standard adult blood volume is approximately 5 L. Thus, to achieve 100 mg/L in the blood, an adult patient would need to receive approximately 500 mg of RB IV to achieve the IC50 value in the bloodstream.
In clinical studies of PV-10® aqueous RB disodium solution, RB has been tolerated at 1500 mg delivered IL.

[10] = 112 mg bolus, 60 kg adult human, 1.9 mg/kg; cited from earlier work
[11] = system: solid tumors (e.g., melanoma, hepatocellular carcinoma, breast carcinoma); conditions: intralesional, intratumoral RB about 25-50 mg/g tumor tissue (25-50 mM); cited from earlier work
[12] = system: Apc^Min colorectal tumor model; type: in vivo, mice
Experimental: 26, 2021. […] Presuming a daily drinking water consumption rate of approximately 2 mL/10 g body weight, this corresponds to consumption of approximately 2 mg RB/10 g (200 mg/kg).
Those Apc^min mice are understood to have thereby consumed approximately 8 mg/10 g/day=800 mg/kg/day. That amount is consistent with toxicology data showing such a dose is tolerated.

[13] = system: several cancer cell lines; conditions: cited from earlier work
[14] = nude mice; cited from earlier work
[15] = human, in vivo; cited from earlier work
[16] = symptomatic mice, 1 mg/mL ad libitum in drinking water

## O=C([O-])c1c(Cl)c(Cl)c(Cl)c(Cl)c1-c1c2cc(I)c(=O)c(I)c-2oc2c(I)c([O-])c(I)cc12.[Na+].[Na+] [RB disodium, 4,5,6,7-tetrachloro-2′,4′,5′,7′-tetraiodofluorescein disodium]
[1]
  bioavailability: < 1%
[2]
  bioavailability via the oral route: 0.1-1%
[3]; lesser amounts of HX compound (Cohort II, 12.5 μL PV-10), compared with the 62.5% group
  survival of mice treated with lesser amounts: much poorer survival rates
[3]; oral gavage twice a week for 2 weeks, higher-dose group (Cohort I, 25 μL PV-10)
  treated leukemic mice that survived for 120 days: 62.5%
[3]; two treatment groups
  survival / therapeutic activity in words: dose-dependent survival
[4]
  behaviour in water solution having the pH value of the human stomach: rapid clouding of the admixture and clumping

## O=C1OC2(c3cc(I)c(O)c(I)c3Oc3c2cc(I)c(O)c3I)c2c(Cl)c(Cl)c(Cl)c(Cl)c21 [RB, 4,5,6,7-tetrachloro-2′,4′,5′,7′-tetraiodofluorescein]
[5]
  concentrations demonstrating cytotoxicity: 50 to 100 µM
[6]
  dose well tolerated: 970 mg/kg/day
[7]
  pKa value: 2.52
[7]; second value
  pKa value: 1.81
[8]
  circulatory half-time (t1/2): about 30 minutes
[9]; delivered IL
  dose tolerated: 1500 mg
[9]; delivered IV
  dose tolerated: 1500 mg
[3]; assuming 1% bioavailability, intestinal transit 6 hours, blood volume 10 percent of body weight, two treatment groups
  estimated RB in the blood: 125 to 250 µM
[3]; two treatment groups
  survival / therapeutic activity in words: therapeutic activity was observed
[10]
  morbidity after IV bolus: not reported to yield morbidity
[11]
  time until acute tumor cytotoxicity is evident: ≤ 30 min
[12]; 4 mg/mL ad libitum in drinking water (about 800 mg/kg/day)
  effect on onset of disease: arrested onset of disease
[12]; mouse, in vivo
  estimated concentration of RB in the blood: 2 to 20 µM
[12]; [16]
  increase in mean survival relative to untreated mice: ~38%
  mean survival: 12.3±0.5 weeks

## CC[C@H](C)[C@@H]([C@@H](CC(=O)N1CCC[C@H]1[C@H](OC)[C@@H](C)C(=O)N[C@H](C)[C@@H](O)c1ccccc1)OC)N(C)C(=O)[C@@H](NC(=O)[C@@H](NC)C(C)C)C(C)C [monomethyl auristatin] (H-[NMeV]V[Dil][Dolaproine]-X1)
[13]
  IC50: < 1 nM

## Calicheamicin
[14]
  LD50: 0.32 mg/kg

## ipilimumab: anti-CTLA-4 monoclonal antibody, immune checkpoint inhibitor
[15]
  terminal t1/2: 15.4 days
